System: AMPK
Experiment: AMPK activation assay (enzyme-linked immunosorbent assay)
Format: cell-based
Outline: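 Read-out: immunodetected kinase activation after compound exposure, run with commercial kit reagents.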

EC50 [nM]	SMILES
1000 to 5000	CS(=O)(=O)c1ccc(N2CCC(NC(=O)c3ccc(C(=O)N4CCN(Cc5ccc(F)cc5)CC4)nc3)CC2)cc1 [Compound 421, 6-(4-(4-fluorobenzyl)piperazine-1-carbonyl)-N-(1-(4-(methylsulfonyl)phenyl)piperidin-4-yl)nicotinamide]
1000 to 5000	O=C(NCc1ccccc1)c1ccc(C(=O)N2CCN(Cc3ccccc3)CC2)cn1 [Compound 116, N-benzyl-5-(4-benzylpiperazine-1-carbonyl)picolinamide]
1000 to 5000	O=C(Nc1ccc(C(=O)N2CCN(Cc3ccc(F)cc3)CC2)cn1)c1ccc(Oc2ccc(F)cc2)nc1 [Compound 177, N-(5-(4-(4-fluorobenzyl)piperazine-1-carbonyl)pyridin-2-yl)-6-(4-fluorophenoxy)nicotinamide]
< 500	CS(=O)(=O)c1ccc(C(=O)C2CCN(C(=O)c3ccc(C(=O)Nc4ccc(Oc5ccc(F)cc5)nc4)cn3)CC2)cc1 [Compound 224, N-(6-(4-fluorophenoxy)pyridin-3-yl)-6-(4-(4-(methylsulfonyl)benzoyl)piperidine-1-carbonyl)nicotinamide]
> 10000	COc1ccc(C(=O)C2CCN(C(=O)c3ccc(C(=O)NC4CCN(Cc5ccc(NC(=O)CCOCCOCCOCCNC(=O)CCCC[C@@H]6SC[C@@H]7NC(=O)N[C@@H]76)cc5)CC4)nc3)CC2)cc1 [Compound 403, 5-(4-(4-methoxybenzoyl)piperidine-1-carbonyl)-N-(1-(4-(14-oxo-18-((3aS,4S,6aR)-2-oxohexahydro-1H-thieno[3,4-d]imidazol-4-yl)-4,7,10-trioxa-13-azaoctadecanamido)benzyl)piperidin-4-yl)picolinamide]
< 500	N#Cc1ccc(O[C@H]2CC[C@@H](NC(=O)c3ccc(C(=O)N4CCC(Oc5ccc(C(F)(F)F)cc5)CC4)cn3)CC2)cc1 [Compound 190, N-((cis)-4-(4-cyanophenoxy)cyclohexyl)-5-(4-(4-(trifluoromethyl)phenoxy)piperidine-1-carbonyl)picolinamide]
< 500	CS(=O)(=O)c1ccc(OC2CCN(C(=O)c3ccc(C(=O)NC4CCN(Cc5cc(F)cc(F)c5)CC4)cn3)CC2)cc1 [Compound 236, N-(1-(3,5-difluorobenzyl)piperidin-4-yl)-6-(4-(4-(methylsulfonyl)phenoxy)piperidine-1-carbonyl)nicotinamide]
< 500	CN1CCN(c2ccc(C(=O)C3CCN(C(=O)c4ccc(C(=O)NC5CCN(Cc6ccc(C#N)cc6)CC5)nc4)CC3)cc2)CC1 [Compound 380, N-(1-(4-cyanobenzyl)piperidin-4-yl)-5-(4-(4-(4-methylpiperazin-1-yl)benzoyl)piperidine-1-carbonyl)picolinamide]
1000 to 5000	CC(=O)Nc1cccc(OC2CCN(C(=O)c3ccc(C(=O)NC4CCN(Cc5ccc(F)cc5)CC4)cn3)CC2)c1 [Compound 413, 6-(4-(3-acetamidophenoxy)piperidine-1-carbonyl)-N-(1-(4-fluorobenzyl)piperidin-4-yl)nicotinamide]
> 10000	COc1ccc(-c2ccc(Nc3ccc(C(=O)NC4CCN(Cc5ccccc5)CC4)nc3)cc2)cc1 [Compound 120, N-(1-benzylpiperidin-4-yl)-5-(4′-methoxybiphenyl-4-ylamino)picolinamide]
1000 to 5000	N#Cc1ccc(CN2CCC(NC(=O)c3ccc(C(=O)N4CCN(C(=O)c5ccccc5)CC4)cn3)CC2)cc1 [Compound 80, 5-(4-benzoylpiperazine-1-carbonyl)-N-(1-(4-cyanobenzyl)piperidin-4-yl)picolinamide]
< 500	COc1ccc(CN2CCC(NC(=O)c3ccc(C(=O)N4CCC(C(=O)c5ccc(OC)cc5)CC4)cn3)CC2)cc1 [Compound 163, 5-(4-(4-methoxybenzoyl)piperidine-1-carbonyl)-N-(1-(4-methoxybenzyl)piperidin-4-yl)picolinamide]
< 500	N#Cc1ccc(CN2CCC(NC(=O)c3ccc(C(=O)N4CCC(C(=O)c5ccc(F)cc5F)CC4)cn3)CC2)cc1 [Compound 271, N-(1-(4-cyanobenzyl)piperidin-4-yl)-5-(4-(2,4-difluorobenzoyl)piperidine-1-carbonyl)picolinamide]
< 500	N#Cc1ccc(OC2CCN(C(=O)c3ccc(C(=O)N[C@H]4CC[C@@H](Oc5ccc(C#N)cc5)CC4)cn3)CC2)cc1 [Compound 321, N-((cis)-4-(4-cyanophenoxy)cyclohexyl)-6-(4-(4-cyanophenoxy)piperidine-1-carbonyl)nicotinamide]
> 10000	O=C(c1cccc(C(=O)N2CCN(c3ccccc3)CC2)n1)N1CCN(Cc2ccc(F)cc2)CC1 [Compound 94, (4-(4-fluorobenzyl)piperazin-1-yl)(6-(4-phenylpiperazine-1-carbonyl)pyridin-2-yl)methanone]
< 500	O=C(N[C@H]1CC[C@@H](Oc2cc(F)cc(F)c2)CC1)c1ccc(C(=O)N2CCC(Oc3ccc(F)cc3)CC2)cn1 [Compound 299, N-((cis)-4-(3,5-difluorophenoxy)cyclohexyl)-5-(4-(4-fluorophenoxy)piperidine-1-carbonyl)picolinamide]
< 500	O=C(Nc1ccc(Oc2ccc(F)cc2)nc1)c1cnc(C(=O)N2CCC(Oc3ccc(C(F)(F)F)cc3)CC2)cn1 [Compound 205, N-(6-(4-fluorophenoxy)pyridin-3-yl)-5-(4-(4-(trifluoromethyl)phenoxy)piperidine-1-carbonyl)pyrazine-2-carboxamide]
< 500	CS(=O)(=O)c1ccc(OC2CCN(C(=O)c3cnc(C(=O)NC4CCN(Cc5ccc(C#N)cc5)CC4)cn3)CC2)cc1 [Compound 218, N-(1-(4-cyanobenzyl)piperidin-4-yl)-5-(4-(4-(methylsulfonyl)phenoxy)piperidine-1-carbonyl)pyrazine-2-carboxamide]
< 500	CN1CCN(c2ccc(C(=O)C3CCN(C(=O)c4ccc(C(=O)NC5CCN(Cc6ccc(C#N)cc6)CC5)cn4)CC3)cc2)CC1 [Compound 243, N-(1-(4-cyanobenzyl)piperidin-4-yl)-6-(4-(4-(4-methylpiperazin-1-yl)benzoyl)piperidine-1-carbonyl)nicotinamide]
< 500	COc1ccc(N2CCC(NC(=O)c3ccc(C(=O)N4CCN(Cc5ccc(F)cc5)CC4)nc3)CC2)cc1 [Compound 405, 6-(4-(4-fluorobenzyl)piperazine-1-carbonyl)-N-(1-(4-methoxyphenyl)piperidin-4-yl) nicotinamide]

Source: patent publication US20150087673A1, “METHODS FOR USING AND BIOMARKERS FOR AMPK-ACTIVATING COMPOUNDS” (RIGEL PHARMACEUTICALS, INC., priority 2013, published 2015)
